Laboratory results reported in PubChem BioAssay (NCI).
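A five-concentration, 48-hour dose response in 96-well plates underlies each endpoint, interpolated linearly between surrounding concentrations. At the GI50, growth is halved. At the TGI there is no net growth.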

Tests used:
Experiment in all cases: inhibition of tumour cell growth, NCI panel, 48 h
HL-60(TB) leukemia = tested on: HL-60(TB) leukemia
COLO 205 colon = tested on: COLO 205 colon
OVCAR-5 ovarian = tested on: OVCAR-5 ovarian
HOP-92 NSCLC = tested on: HOP-92 NSCLC
U251 CNS = tested on: U251 CNS
HCT-15 colon = tested on: HCT-15 colon
HOP-62 NSCLC = tested on: HOP-62 NSCLC
HCC-2998 colon = tested on: HCC-2998 colon
SF-295 CNS = tested on: SF-295 CNS
OVCAR-4 ovarian = tested on: OVCAR-4 ovarian
LOX IMVI melanoma = tested on: LOX IMVI melanoma
KM12 colon = tested on: KM12 colon
NCI-H460 lung = tested on: NCI-H460 lung
HCT-116 colon = tested on: HCT-116 colon
NCI/ADR-RES ovarian = tested on: NCI/ADR-RES ovarian
SF-539 CNS = tested on: SF-539 CNS
CCRF-CEM leukemia = tested on: CCRF-CEM leukemia
NCI-H522 lung = tested on: NCI-H522 lung
SW-620 colon = tested on: SW-620 colon
OVCAR-8 ovarian = tested on: OVCAR-8 ovarian
UO-31 renal = tested on: UO-31 renal
NCI-H226 lung = tested on: NCI-H226 lung
DU-145 prostate = tested on: DU-145 prostate
SK-MEL-28 melanoma = tested on: SK-MEL-28 melanoma
SNB-19 CNS = tested on: SNB-19 CNS
A549 NSCLC = tested on: A549 NSCLC
MDA-MB-231 breast = tested on: MDA-MB-231 breast
MCF7 breast = tested on: MCF7 breast
UACC-257 melanoma = tested on: UACC-257 melanoma
786-0 renal = tested on: 786-0 renal
MOLT-4 leukemia = tested on: MOLT-4 leukemia
SN12C renal = tested on: SN12C renal
NCI-H23 lung = tested on: NCI-H23 lung
SK-MEL-5 melanoma = tested on: SK-MEL-5 melanoma
T-47D breast = tested on: T-47D breast
HT29 colon = tested on: HT29 colon
MDA-MB-435 = tested on: MDA-MB-435
PC-3 prostate = tested on: PC-3 prostate
TK-10 renal = tested on: TK-10 renal
OVCAR-3 ovarian = tested on: OVCAR-3 ovarian
SR leukemia = tested on: SR leukemia
ACHN renal = tested on: ACHN renal
IGROV1 ovarian = tested on: IGROV1 ovarian
BT-549 breast = tested on: BT-549 breast
RPMI-8226 leukemia = tested on: RPMI-8226 leukemia
M14 melanoma = tested on: M14 melanoma
HS 578T breast = tested on: HS 578T breast
RXF 393 renal = tested on: RXF 393 renal
CAKI-1 renal = tested on: CAKI-1 renal
MALME-3M melanoma = tested on: MALME-3M melanoma
SNB-75 CNS = tested on: SNB-75 CNS
UACC-62 melanoma = tested on: UACC-62 melanoma
SK-MEL-2 melanoma = tested on: SK-MEL-2 melanoma
SF-268 CNS = tested on: SF-268 CNS
K-562 leukemia = tested on: K-562 leukemia
SK-OV-3 ovarian = tested on: SK-OV-3 ovarian
A498 renal = tested on: A498 renal

CC1(C)CC(=O)c2c(C(F)(F)F)nn(-c3ccc(C(N)=O)c(NC4CCC(OC(=O)CN)CC4)c3)c2C1 (centres undefined)
GI50 (HL-60(TB) leukemia): 39.8 nM | TGI (HL-60(TB) leukemia): 13200 nM | GI50 (COLO 205 colon): 28.9 nM | TGI (COLO 205 colon): 8030 nM | GI50 (OVCAR-5 ovarian): 3700 nM | TGI (OVCAR-5 ovarian): > 100000 nM | GI50 (HOP-92 NSCLC): 124 nM | TGI (HOP-92 NSCLC): 1040 nM | GI50 (U251 CNS): 73.1 nM | TGI (U251 CNS): > 54200 nM | GI50 (HCT-15 colon): 120 nM | TGI (HCT-15 colon): > 93600 nM | GI50 (HOP-62 NSCLC): 78.5 nM | TGI (HOP-62 NSCLC): > 100000 nM | GI50 (HCC-2998 colon): 195 nM | TGI (HCC-2998 colon): 13200 nM | GI50 (SF-295 CNS): 59.3 nM | TGI (SF-295 CNS): > 100000 nM | GI50 (OVCAR-4 ovarian): > 25100 nM | TGI (OVCAR-4 ovarian): > 100000 nM | GI50 (LOX IMVI melanoma): 61.6 nM | TGI (LOX IMVI melanoma): 330 nM | GI50 (KM12 colon): 43.4 nM | TGI (KM12 colon): > 100000 nM | GI50 (NCI-H460 lung): 50.2 nM | TGI (NCI-H460 lung): > 100000 nM | GI50 (HCT-116 colon): 40.5 nM | TGI (HCT-116 colon): 31600 nM | GI50 (NCI/ADR-RES ovarian): 12500 nM | TGI (NCI/ADR-RES ovarian): > 100000 nM | GI50 (SF-539 CNS): 364 nM | TGI (SF-539 CNS): 20800 nM | GI50 (CCRF-CEM leukemia): 33.9 nM | TGI (CCRF-CEM leukemia): > 100000 nM | GI50 (NCI-H522 lung): 38.7 nM | TGI (NCI-H522 lung): 20100 nM | GI50 (SW-620 colon): 38 nM | TGI (SW-620 colon): > 100000 nM | GI50 (OVCAR-8 ovarian): 59.3 nM | TGI (OVCAR-8 ovarian): > 100000 nM | GI50 (UO-31 renal): 418 nM | TGI (UO-31 renal): > 27100 nM | GI50 (NCI-H226 lung): 103 nM | TGI (NCI-H226 lung): > 56400 nM | GI50 (DU-145 prostate): 88.3 nM | TGI (DU-145 prostate): > 100000 nM | GI50 (SK-MEL-28 melanoma): 52.2 nM | TGI (SK-MEL-28 melanoma): 20600 nM | GI50 (SNB-19 CNS): 142 nM | TGI (SNB-19 CNS): > 100000 nM | GI50 (A549 NSCLC): 66.6 nM | TGI (A549 NSCLC): 32800 nM | GI50 (MDA-MB-231 breast): 112 nM | TGI (MDA-MB-231 breast): 31500 nM | GI50 (MCF7 breast): < 18.3 nM | TGI (MCF7 breast): > 100000 nM | GI50 (UACC-257 melanoma): 29 nM | TGI (UACC-257 melanoma): 97.2 nM | GI50 (786-0 renal): 16200 nM | TGI (786-0 renal): > 100000 nM | GI50 (MOLT-4 leukemia): 43.7 nM | TGI (MOLT-4 leukemia): 24400 nM | GI50 (SN12C renal): 69.2 nM | TGI (SN12C renal): > 100000 nM | GI50 (NCI-H23 lung): 93.5 nM | TGI (NCI-H23 lung): > 100000 nM | GI50 (SK-MEL-5 melanoma): 74.2 nM | TGI (SK-MEL-5 melanoma): 18300 nM | GI50 (T-47D breast): 46.1 nM | TGI (T-47D breast): > 100000 nM | GI50 (HT29 colon): 32.1 nM | TGI (HT29 colon): > 100000 nM | GI50 (MDA-MB-435): 41.8 nM | TGI (MDA-MB-435): > 47300 nM | GI50 (PC-3 prostate): 68.8 nM | TGI (PC-3 prostate): > 100000 nM | GI50 (TK-10 renal): 59.2 nM | TGI (TK-10 renal): > 100000 nM | GI50 (OVCAR-3 ovarian): 159 nM | TGI (OVCAR-3 ovarian): > 100000 nM | GI50 (SR leukemia): 30.1 nM | TGI (SR leukemia): 17600 nM | GI50 (ACHN renal): 62.2 nM | TGI (ACHN renal): > 100000 nM | GI50 (IGROV1 ovarian): 42.2 nM | TGI (IGROV1 ovarian): > 39200 nM | GI50 (BT-549 breast): 5240 nM | TGI (BT-549 breast): 41700 nM | GI50 (RPMI-8226 leukemia): 356 nM | TGI (RPMI-8226 leukemia): > 60100 nM | GI50 (M14 melanoma): 60.8 nM | TGI (M14 melanoma): 26500 nM | GI50 (HS 578T breast): 9730 nM | TGI (HS 578T breast): > 100000 nM | GI50 (RXF 393 renal): 157 nM | TGI (RXF 393 renal): 28800 nM | GI50 (CAKI-1 renal): 2900 nM | TGI (CAKI-1 renal): > 100000 nM | GI50 (MALME-3M melanoma): 46.8 nM | TGI (MALME-3M melanoma): > 100000 nM | GI50 (SNB-75 CNS): 634 nM | TGI (SNB-75 CNS): > 100000 nM | GI50 (UACC-62 melanoma): 50.7 nM | TGI (UACC-62 melanoma): 14500 nM | GI50 (SK-MEL-2 melanoma): 68.3 nM | TGI (SK-MEL-2 melanoma): > 100000 nM | GI50 (SF-268 CNS): 271 nM | TGI (SF-268 CNS): > 100000 nM | GI50 (K-562 leukemia): 36 nM | TGI (K-562 leukemia): > 79400 nM | GI50 (SK-OV-3 ovarian): 23.8 nM | TGI (SK-OV-3 ovarian): > 100000 nM | GI50 (A498 renal): 303 nM | TGI (A498 renal): > 100000 nM
